Data reported in US9840500B2, “Compounds as dual inhibitors of histone methyltransferases and DNA methyltransferases” (FUNDACIÓN PARA LA INVESTIGACIÓN MÉDICA APLICADA, priority 2014, dated 2017).

Experiments:
CEMO-1 = test: Cell proliferation assay, CEMO-1 (ALL); type: cell-based, human; conditions: Homo sapiens; 48 hours of treatment; Table 3
Description: (§1) Cell proliferation was analyzed after 48 hours of in vitro treatment using the CellTiter 96 Aqueous One Solution Cell Proliferation Assay (Promega, Madison, Wis.). This is a colorimetric method for determining the number of viable cells in proliferation.
(§2) For the assay, suspension cells were cultured by triplicate at a density of 1×10^6 cells/ml in 96-well plates (100.000 cells/well, 100 μl/well), except for OCILY-3 and OCILY-10 cell lines which were cultured at a density of 0.5×10^6 cells/ml (50.000 cells/well, 100 μl/well) and for HepG2, Hep3B and PLC/PRF/5 cell ines which were cultured at a density of 3000 cells/well, 100 μl/well). Adherent cells were obtained from 80-90% confluent flasks and 100 μl of cells were seeded at a density of 5000 cells/well in 96-well plates by triplicate. Before addition of the compounds, adherent cells were allowed to attach to the bottom of the wells for 12 hours. In all cases, only the 60 inner wells were used to avoid any border effects.
(§3) After 48 hours of treatment, plates with suspension cells were centrifuged at 800 g for 10 minutes and medium was removed. The plates with adherent cells were flicked to remove medium. Then, cells were incubated with 100 ul/well of medium and 20 ul/well of CellTiter 96 Aqueous One Solution reagent. After 1-3 hours of incubation at 37° C., absorbance was measured at 490 nm in a 96-well plate reader. The background absorbance was measured in wells with only cell line medium and solution reagent. Data was calculated as a percentage of total absorbance of treated cell/absorbance of non treated cells.

OCI-Ly3 = test: Cell proliferation assay, OCI-Ly3 (ABC-DLBCL); type: cell-based; conditions: Homo sapiens, 48 hours of treatment, Table 3
Description: as §1, §2, §3

DNMT1 = DNMT1 (Homo sapiens, UniProt P26358); test: DNMT1 enzyme activity assay (TR-FRET, EPIgeneous methyltransferase assay); type: biochemical
Sequence of DNMT1 (P26358 whole entry): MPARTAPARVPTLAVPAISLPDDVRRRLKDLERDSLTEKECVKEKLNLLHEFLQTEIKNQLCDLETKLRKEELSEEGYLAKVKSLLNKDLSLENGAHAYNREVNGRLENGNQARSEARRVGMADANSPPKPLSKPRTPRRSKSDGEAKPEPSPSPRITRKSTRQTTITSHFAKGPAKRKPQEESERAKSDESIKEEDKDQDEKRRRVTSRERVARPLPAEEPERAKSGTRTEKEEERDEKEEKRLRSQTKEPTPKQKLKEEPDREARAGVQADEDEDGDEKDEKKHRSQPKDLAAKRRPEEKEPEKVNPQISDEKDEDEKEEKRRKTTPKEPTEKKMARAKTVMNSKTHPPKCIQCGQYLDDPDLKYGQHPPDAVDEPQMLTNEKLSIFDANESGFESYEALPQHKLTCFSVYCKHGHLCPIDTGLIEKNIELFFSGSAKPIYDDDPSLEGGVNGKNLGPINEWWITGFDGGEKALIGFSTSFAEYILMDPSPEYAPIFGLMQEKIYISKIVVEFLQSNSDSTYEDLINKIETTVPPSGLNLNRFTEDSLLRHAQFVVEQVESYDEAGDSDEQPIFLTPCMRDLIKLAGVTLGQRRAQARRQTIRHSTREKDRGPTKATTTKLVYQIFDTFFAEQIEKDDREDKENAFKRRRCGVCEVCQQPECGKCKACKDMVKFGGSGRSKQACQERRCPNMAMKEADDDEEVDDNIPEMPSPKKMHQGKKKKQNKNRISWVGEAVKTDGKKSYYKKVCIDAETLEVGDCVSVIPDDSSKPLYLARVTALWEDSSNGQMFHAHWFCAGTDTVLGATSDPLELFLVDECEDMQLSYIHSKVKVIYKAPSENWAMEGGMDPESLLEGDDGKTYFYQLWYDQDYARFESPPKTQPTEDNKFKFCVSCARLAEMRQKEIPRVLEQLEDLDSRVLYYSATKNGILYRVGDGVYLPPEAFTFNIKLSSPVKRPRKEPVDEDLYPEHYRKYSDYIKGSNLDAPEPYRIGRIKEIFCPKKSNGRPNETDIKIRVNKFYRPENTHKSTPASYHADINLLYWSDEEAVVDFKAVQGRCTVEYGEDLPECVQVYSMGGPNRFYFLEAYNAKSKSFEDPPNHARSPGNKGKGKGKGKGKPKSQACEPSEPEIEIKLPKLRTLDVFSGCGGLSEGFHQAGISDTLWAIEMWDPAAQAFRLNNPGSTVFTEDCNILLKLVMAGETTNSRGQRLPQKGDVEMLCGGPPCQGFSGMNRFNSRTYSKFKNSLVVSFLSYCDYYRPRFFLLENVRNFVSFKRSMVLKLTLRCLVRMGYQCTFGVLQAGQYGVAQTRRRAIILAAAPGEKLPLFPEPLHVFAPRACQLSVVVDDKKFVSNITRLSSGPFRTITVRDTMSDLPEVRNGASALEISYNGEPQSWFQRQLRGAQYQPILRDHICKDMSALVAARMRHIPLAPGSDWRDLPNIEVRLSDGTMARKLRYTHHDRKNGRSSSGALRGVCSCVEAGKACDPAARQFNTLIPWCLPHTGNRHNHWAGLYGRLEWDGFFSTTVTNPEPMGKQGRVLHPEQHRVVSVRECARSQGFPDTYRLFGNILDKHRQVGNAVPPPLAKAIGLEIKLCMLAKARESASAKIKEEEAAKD
Description: The biochemical assay to measure DNMT1 enzyme activity relies on time-resolved fluorescence energy transfer (TR-FRET) between lumi4-Tb (donor) and d2 (acceptor) using the EPIgeneous methyltransferase assay (CisBio Cat#62SAHPEB). […] TR-FRET signal is inversely proportional to the concentration of SAH, product of DNMT1 enzyme activity, in the sample.
The human DNMT1 was obtained from Reaction Biology Corp. (Cat# DMT-21-124). […] Final percentage of DMSO was 0.5%. • 2 μl of 1 nM DNMT1 enzyme diluted in assay buffer.
(§4) For each well, fluorescence was measured at 620 nm and 665 nm. A ratio (665 nm/620 nm) was then calculated in order to minimize medium interferences. Positive control was obtained in the presence of the vehicle of the compounds. Negative control was obtained in the absence of G9a enzyme activity. Calculated IC50 values were determined using GraphPrism using 4-parameters inhibition curve.

human G9a enzyme = target: T1, human G9a enzyme (Homo sapiens, UniProt Q96KQ7); test: G9a enzyme activity assay (TR-FRET); type: biochemical
T1 sequence (Q96KQ7 1-1210): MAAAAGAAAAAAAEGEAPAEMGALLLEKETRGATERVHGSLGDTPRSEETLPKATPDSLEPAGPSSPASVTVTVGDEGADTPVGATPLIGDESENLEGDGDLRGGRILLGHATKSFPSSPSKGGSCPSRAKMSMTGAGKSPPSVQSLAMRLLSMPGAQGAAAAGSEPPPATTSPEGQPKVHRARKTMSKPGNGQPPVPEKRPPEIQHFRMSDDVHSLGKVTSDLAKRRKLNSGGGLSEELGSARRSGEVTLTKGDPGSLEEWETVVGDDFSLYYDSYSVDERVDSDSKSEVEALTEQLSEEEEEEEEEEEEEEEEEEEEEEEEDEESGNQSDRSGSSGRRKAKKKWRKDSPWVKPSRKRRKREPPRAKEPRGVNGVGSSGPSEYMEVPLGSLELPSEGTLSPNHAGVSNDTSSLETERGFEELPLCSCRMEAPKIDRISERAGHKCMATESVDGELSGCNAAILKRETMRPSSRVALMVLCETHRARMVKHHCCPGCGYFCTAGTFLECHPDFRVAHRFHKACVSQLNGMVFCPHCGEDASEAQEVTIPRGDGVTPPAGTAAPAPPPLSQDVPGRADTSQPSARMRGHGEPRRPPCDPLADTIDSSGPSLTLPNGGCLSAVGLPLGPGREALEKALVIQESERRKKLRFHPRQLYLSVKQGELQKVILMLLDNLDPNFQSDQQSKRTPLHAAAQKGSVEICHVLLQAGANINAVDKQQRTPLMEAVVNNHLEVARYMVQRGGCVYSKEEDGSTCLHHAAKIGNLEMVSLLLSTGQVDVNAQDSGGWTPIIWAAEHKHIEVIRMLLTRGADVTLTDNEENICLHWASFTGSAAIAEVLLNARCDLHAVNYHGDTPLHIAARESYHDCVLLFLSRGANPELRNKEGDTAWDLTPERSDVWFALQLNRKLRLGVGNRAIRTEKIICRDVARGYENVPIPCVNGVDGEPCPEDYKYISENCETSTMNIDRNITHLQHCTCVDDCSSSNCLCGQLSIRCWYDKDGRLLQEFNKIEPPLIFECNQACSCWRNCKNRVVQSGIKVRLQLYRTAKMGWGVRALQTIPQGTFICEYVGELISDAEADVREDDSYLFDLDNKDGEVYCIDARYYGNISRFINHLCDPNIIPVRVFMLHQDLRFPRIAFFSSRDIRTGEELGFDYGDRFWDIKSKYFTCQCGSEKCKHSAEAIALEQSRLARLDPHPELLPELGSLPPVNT
Description: The biochemical assay to measure G9a enzyme activity relies on time-resolved fluorescence energy transfer (TR-FRET) between europium cryptate (donor) and XL665 (acceptor). […] The human G9a enzyme expressed in a baculovirus infected Sf9 cell expression system was obtained from BPS Biosciences (Cat. #51001). […] Final percentage of DMSO was 0.5%. • 2 μl of 1 nM G9a enzyme diluted in assay buffer. […] Final concentration 150 nM. • Then, add 5 μl of streptavidin XL665 beads. Final concentration of 16 μM. • Read the plate after 1 hour of incubation at room temperature.
as §4

HepG2 = test: Cell proliferation assay, HepG2 (HCC); type: cell-based; conditions: Homo sapiens, 48 hours of treatment, Table 3
Description: as §1, §2, §3

PLC/PRF/5 = test: Cell proliferation assay, PLC/PRF/5 (HCC); type: cell-based; conditions: Homo sapiens, 48 hours of treatment, Table 3
Description: as §1, §2, §3

Hep3B = test: Cell proliferation assay, Hep3B (HCC); type: cell-based; conditions: Homo sapiens, 48 hours of treatment, Table 3
Description: as §1, §2, §3

SMILES	GI50 (CEMO-1)	GI50 (OCI-Ly3)	IC50 (DNMT1)	IC50 (human G9a enzyme)	GI50 (HepG2)	GI50 (PLC/PRF/5)	GI50 (Hep3B)
COc1cc2c(NC3CCCC3)cc(-c3ccc(C)o3)nc2cc1OCCCN1CCCC1 [Compound 3-05]	100 to 1000 nM	–	–	–	–	–	–
COc1cc2c(NC3CCN(C)C(=O)C3)cc(-c3ccc(C)o3)nc2cc1OCCCN1CCCC1 (stereo not shown) [Compound 3-17]	–	100 to 1000 nM	–	–	–	–	–
COc1cc2c(NC3CCN(C)CC3)cc(-c3ccc(C)s3)nc2cc1OCCCN1CCCC1 [Compound 3-36]	100 to 1000 nM	–	500 to 1000 nM	< 100 nM	–	–	–
COc1cc2c(NCC3CCN(C)CC3)cc(-c3ccc(C)[nH]3)nc2cc1OCCCN1CCCC1 [Compound 3-39]	100 to 1000 nM	–	< 100 nM	< 100 nM	–	–	–
CCc1ccc(-c2cc(NC3CC4(CCNCC4)C3)c3cc(OC)c(OCCCN4CCCC4)cc3n2)o1 [Compound 4-03, N-(7-azaspiro[3.5]nonan-2-yl)-2-(5-ethyl-2-furyl)-6-methoxy-7-(3-pyrrolidin-1-ylpropoxy)quinolin-4-amine:2,2,2-trifluoroacetic acid]	1000 to 10000 nM	–	< 100 nM	< 100 nM	–	–	–
COc1cc2c(NC3CCC34CCN(C)CC4)cc(-c3ccc(C)o3)nc2cc1OCCCN1CCCC1 (stereo not shown) [Compound 5-01, 6-methoxy-N-(7-methyl-7-azaspiro[3.5]nonan-3-yl)-2-(5-methyl-2-furyl)-7-(3-pyrrolidin-1-ylpropoxy)quinolin-4-amine; 2,2,2-trifluoroacetic acid]	–	100 to 1000 nM	–	–	–	–	–
COc1cc2c(NC3CC4(CCN(C)CC4)C3)cc(-c3ccc(C)o3)nc2cc1OCCCN1CCCC1 [Compound 5-02]	–	100 to 1000 nM	–	–	1000 to 10000 nM	1000 to 10000 nM	1000 to 10000 nM
COc1cc2c(NC3CC4(CCN(C)CC4)C3)cc(-c3ccc(C)[nH]3)nc2cc1OCCCN1CCCC1 [Compound 5-05, 6-methoxy-N-(7-methyl-7-azaspiro[3.5]nonan-2-yl)-2-(5-methyl-1H-pyrrol-2-yl)-7-(3-pyrrolidin-1-ylpropoxy)quinolin-4-amine; 2,2,2-trifluoroacetic acid]	1000 to 10000 nM	–	100 to 500 nM	< 100 nM	–	–	–
CCc1ccc(-c2cc(NC3CCC34CCN(C)CC4)c3cc(OC)c(OCCCN4CCCC4)cc3n2)o1 (stereo not shown) [Compound 5-07, 2-(5-ethyl-2-furyl)-6-methoxy-N-(7-methyl-7-azaspiro[3.5]nonan-3-yl)-7-(3-pyrrolidin-1-ylpropoxy)quinolin-4-amine; 2,2,2-trifluoroacetic acid]	–	< 100 nM	–	–	100 to 1000 nM	100 to 1000 nM	100 to 1000 nM
COc1cc2c(NC3CCN(C(C)C)CC3)cc(C3CCCCC3)nc2cc1OCCCN1CCCC1 [Compound 7-05, 2-cyclohexyl-N-(1-isopropyl-4-piperidyl)-6-methoxy-7-(3-pyrrolidin-1-ylpropoxy)quinolin-4-amine; 2,2,2-trifluoroacetic acid]	≤ 10000 nM	–	500 to 1000 nM	< 100 nM	≤ 10000 nM	≤ 10000 nM	≤ 10000 nM
COc1cc2c(NC3CCN(C)CC3)cc(-c3ccc(C)o3)nc2cc1OCC1CCNCC1 [Compound 11-01, 6-methoxy-2-(5-methyl-2-furyl)-N-(1-methyl-4-piperidyl)-7-(4-piperidylmethoxy)quinolin-4-amine; 2,2,2-trifluoroacetic acid]	–	< 100 nM	–	–	1000 to 10000 nM	1000 to 10000 nM	1000 to 10000 nM
COc1cc2c(NCC3CCN(C)CC3)cc(-c3ccc(C)o3)nc2cc1OCC1CCNCC1 [Compound 11-02]	1000 to 10000 nM	–	100 to 500 nM	100 to 500 nM	–	–	–
COc1cc2c(NC3CCN(C)CC3)cc(-c3ccc(C)[nH]3)nc2cc1OCC1CCNCC1 [Compound 11-05]	≤ 10000 nM	–	100 to 500 nM	< 100 nM	≤ 10000 nM	≤ 10000 nM	≤ 10000 nM
Cc1ccc(-c2cc(NC3CCN(C)CC3)c3cc(OCC(F)(F)F)c(OCCCN4CCCC4)cc3n2)o1 [Compound 13-01, 2-(5-methyl-2-furyl)-N-(1-methyl-4-piperidyl)-7-(3-pyrrolidin-1-ylpropoxy)-6-(2,2,2-trifluoroethoxy)quinolin-4-amine; 2,2,2-trifluoroacetic acid]	–	–	500 to 1000 nM	500 to 1000 nM	–	–	–
COc1cc2c(NC3CCN(C)CC3)cc(C3CCC(C)O3)nc2cc1OCCCN1CCCC1 (stereo not shown) [Compound 15-01, 6-methoxy-N-(1-methyl-4-piperidyl)-2-(5-methyltetrahydrofuran-2-yl)-7-(3-pyrrolidin-1-ylpropoxy)quinolin-4-amine; 2,2,2-trifluoroacetic acid]	–	–	1000 to 10000 nM	< 100 nM	–	–	–
COc1cc2c(NC3CCN(C)CC3)cc(-c3ccc(C)o3)nc2cc1OC1CC2(CNC2)C1 [Compound 16-01, 7-(2-azaspiro[3.3]heptan-6-yloxy)-6-methoxy-2-(5-methyl-2-furyl)-N-(1-methyl-4-piperidyl)quinolin-4-amine; 2,2,2-trifluoroacetic acid]	1000 to 10000 nM	–	100 to 500 nM	1000 to 10000 nM	≤ 10000 nM	≤ 10000 nM	≤ 10000 nM
CCc1ccc(-c2cc(NC3CC4(CCN(C5CC5)CC4)C3)c3cc(OC)c(OCCCN4CCCC4)cc3n2)o1 [Compound 19-01, N-(7-cyclopropyl-7-azaspiro[3.5]nonan-2-yl)-2-(5-ethyl-2-furyl)-6-methoxy-7-(3-pyrrolidin-1-ylpropoxy)quinolin-4-amine; 2,2,2-trifluoroacetic acid]	–	–	500 to 1000 nM	1000 to 10000 nM	–	–	–
CCc1ccc(-c2cc(NC3CCC34CCN(C3CC3)CC4)c3cc(OC)c(OCCCN4CCCC4)cc3n2)o1 (stereo not shown) [Compound 19-02, N-(7-cyclopropyl-7-azaspiro[3.5]nonan-3-yl)-2-(5-ethyl-2-furyl)-6-methoxy-7-(3-pyrrolidin-1-ylpropoxy)quinolin-4-amine; 2,2,2-trifluoroacetic acid]	–	–	100 to 500 nM	500 to 1000 nM	–	–	–
COc1cc2c(NC3CCN(C)CC3)cc(-c3ccc(C)o3)nc2cc1OC1CCN(C(=O)OC(C)(C)C)CC1 [Compound 19-03]	–	–	1000 to 10000 nM	1000 to 10000 nM	–	–	–
